In the CheMixHub drug solubility set:

Assay: xn = mol fraction of the nth substance listed, in the solute-free solvent

O=C1C=CC(=O)N1c1ccccc1Br + CO + O
solubility (g/100 g solution)
Details | 278.15 K | 283.15 K | 288.15 K | 293.15 K | 298.15 K | 303.15 K | 308.15 K | 313.15 K | 318.15 K | 323.15 K
x2 = 0.05881 | 0.58 | 0.746 | 0.94 | 1.19 | 1.47 | 1.83 | 2.25 | 2.74 | 3.31 | 4.02
x2 = 0.1233 | 1.14 | 1.45 | 1.86 | 2.38 | 2.94 | 3.7 | 4.49 | 5.5 | 6.69 | 7.95
x2 = 0.1942 | 2.04 | 2.61 | 3.29 | 4.1 | 5.06 | 6.13 | 7.47 | 9.02 | 10.8 | 12.7
x2 = 0.2727 | 3.47 | 4.29 | 5.27 | 6.48 | 7.79 | 9.34 | 11.1 | 13 | 15.3 | 17.7
x2 = 0.3599 | 4.79 | 5.85 | 7.12 | 8.56 | 10.2 | 12 | 14.3 | 16.5 | 19 | 21.8
x2 = 0.4576 | 6.01 | 7.29 | 8.71 | 10.5 | 12.4 | 14.5 | 16.9 | 19.4 | 22.2 | 25.4
x2 = 0.5675 | 7 | 8.5 | 10.2 | 12.2 | 14.3 | 16.8 | 19.5 | 22.2 | 25.4 | 28.6
x2 = 0.6923 | 7.84 | 9.53 | 11.5 | 13.5 | 16.1 | 18.7 | 21.7 | 24.7 | 28.1 | 31.6
x2 = 0.835 | 8.75 | 10.5 | 12.7 | 14.9 | 17.7 | 20.6 | 23.8 | 27.1 | 30.8 | 34.6

CC(C)C(=O)Nc1ccc([N+](=O)[O-])c(C(F)(F)F)c1 + CCO + O
solubility (g/100 g solution)
Details | 278.15 K | 283.15 K | 288.15 K | 293.15 K | 298.15 K | 303.15 K | 308.15 K | 313.15 K | 318.15 K | 323.15 K
x2 = 0.04165 | 0.00282 | 0.00366 | 0.00476 | 0.00623 | 0.00797 | 0.0102 | 0.0129 | 0.0162 | 0.0203 | 0.0251
x2 = 0.08908 | 0.0183 | 0.0236 | 0.0305 | 0.0388 | 0.0499 | 0.0632 | 0.0793 | 0.0976 | 0.122 | 0.148
x2 = 0.1436 | 0.0774 | 0.0967 | 0.124 | 0.158 | 0.199 | 0.246 | 0.305 | 0.377 | 0.462 | 0.568
x2 = 0.2068 | 0.289 | 0.358 | 0.447 | 0.563 | 0.694 | 0.851 | 1.04 | 1.26 | 1.54 | 1.86
x2 = 0.2812 | 0.894 | 1.09 | 1.34 | 1.62 | 1.93 | 2.32 | 2.77 | 3.31 | 3.89 | 4.58
x2 = 0.3698 | 2.17 | 2.59 | 3.2 | 3.88 | 4.59 | 5.48 | 6.38 | 7.52 | 8.74 | 10.2
x2 = 0.4772 | 4.83 | 5.78 | 6.84 | 8.03 | 9.49 | 11 | 12.8 | 14.7 | 16.8 | 19.1
x2 = 0.6101 | 8.9 | 10.5 | 12.3 | 14.3 | 16.5 | 19 | 21.5 | 24.4 | 27.2 | 30.6
x2 = 0.7788 | 13.7 | 15.9 | 18.4 | 21.1 | 24.4 | 27.7 | 30.7 | 34.4 | 38.1 | 41.7

COC(=O)Nc1nc2ccccc2[nH]1 + CCCO + O
solubility (g/100 g solution)
Details | 278.15 K | 283.15 K | 288.15 K | 293.15 K | 298.15 K | 303.15 K | 308.15 K | 313.15 K | 318.15 K
x2 = 0.03228 | 0.000759 | 0.000937 | 0.00117 | 0.00145 | 0.00179 | 0.00212 | 0.00255 | 0.00307 | 0.00365
x2 = 0.06986 | 0.00122 | 0.00153 | 0.00195 | 0.00246 | 0.00308 | 0.00372 | 0.00456 | 0.00552 | 0.00671
x2 = 0.1138 | 0.00157 | 0.00198 | 0.00262 | 0.00333 | 0.00428 | 0.00526 | 0.0066 | 0.00814 | 0.01
x2 = 0.1665 | 0.0017 | 0.00223 | 0.00302 | 0.00394 | 0.00516 | 0.00653 | 0.00832 | 0.0105 | 0.0132
x2 = 0.2308 | 0.0017 | 0.00229 | 0.00318 | 0.00426 | 0.0057 | 0.00739 | 0.00966 | 0.0124 | 0.016
x2 = 0.3105 | 0.00161 | 0.00218 | 0.0032 | 0.00441 | 0.00599 | 0.00796 | 0.0107 | 0.0141 | 0.0185
x2 = 0.4108 | 0.00149 | 0.0021 | 0.00313 | 0.00441 | 0.00614 | 0.00837 | 0.0115 | 0.0155 | 0.0208
x2 = 0.5455 | 0.00136 | 0.00196 | 0.00302 | 0.00436 | 0.00622 | 0.0087 | 0.0123 | 0.0169 | 0.0232
x2 = 0.7314 | 0.00123 | 0.00179 | 0.00287 | 0.00425 | 0.00617 | 0.00889 | 0.0128 | 0.0181 | 0.0254

Cc1ccc(-c2cc(C(F)(F)F)nn2-c2ccc(S(N)(=O)=O)cc2)cc1 + CN1CCCC1=O + CCO
solubility (g/100 g solution)
Details | x2 = 0.0491 | x2 = 0.1041 | x2 = 0.1661 | x2 = 0.2365 | x2 = 0.3173 | x2 = 0.4108 | x2 = 0.5202 | x2 = 0.6502 | x2 = 0.8071
293.15 K | 8.15 | 8.62 | 9.04 | 9.29 | 9.69 | 10.4 | 12.6 | 14.8 | 17.6
298.15 K | 8.96 | 9.87 | 10.4 | 10.9 | 11.4 | 12.6 | 14.7 | 16.8 | 19.6
303.15 K | 10.2 | 10.9 | 11.3 | 12.3 | 12.9 | 14.4 | 16.7 | 18.8 | 22
308.15 K | 11.1 | 11.8 | 12.6 | 13.8 | 14.3 | 16.4 | 18.8 | 20.9 | 23.9
313.15 K | 12.1 | 12.7 | 13.9 | 15.2 | 15.9 | 19 | 21.3 | 23.5 | 25.9

COC(=O)Nc1nc2ccccc2[nH]1 + CN(C)C=O + O
solubility (g/100 g solution)
Details | 278.15 K | 283.15 K | 288.15 K | 293.15 K | 298.15 K | 303.15 K | 308.15 K | 313.15 K | 318.15 K
x2 = 0.02669 | 0.00314 | 0.0037 | 0.00435 | 0.00513 | 0.00608 | 0.0069 | 0.00793 | 0.00907 | 0.0104
x2 = 0.05816 | 0.0129 | 0.0149 | 0.017 | 0.0196 | 0.0227 | 0.0252 | 0.0284 | 0.0319 | 0.0358
x2 = 0.09552 | 0.0278 | 0.0343 | 0.0397 | 0.045 | 0.0511 | 0.0563 | 0.0627 | 0.0696 | 0.0773
x2 = 0.1411 | 0.0542 | 0.0604 | 0.0678 | 0.076 | 0.0856 | 0.0938 | 0.103 | 0.114 | 0.126
x2 = 0.1978 | 0.0795 | 0.0881 | 0.098 | 0.109 | 0.122 | 0.133 | 0.147 | 0.161 | 0.175
x2 = 0.2702 | 0.108 | 0.12 | 0.133 | 0.147 | 0.163 | 0.177 | 0.194 | 0.211 | 0.23
x2 = 0.3643 | 0.144 | 0.159 | 0.174 | 0.192 | 0.212 | 0.23 | 0.25 | 0.271 | 0.294
x2 = 0.4967 | 0.186 | 0.205 | 0.223 | 0.244 | 0.268 | 0.29 | 0.315 | 0.339 | 0.365
x2 = 0.6912 | 0.219 | 0.24 | 0.259 | 0.282 | 0.308 | 0.333 | 0.359 | 0.387 | 0.416

Nc1cccc2c1CN(C1CCC(=O)NC1=O)C2=O (stereo not drawn) + CCOC(C)=O + CC(C)O
solubility (g/100 g solution)
Details | 273.15 K | 278.15 K | 283.15 K | 288.15 K | 293.15 K | 298.15 K | 303.15 K | 308.15 K | 313.15 K | 318.15 K
x2 = 0.1457 | 0.111 | 0.13 | 0.152 | 0.176 | 0.202 | 0.232 | 0.267 | 0.306 | 0.354 | 0.41
x2 = 0.3126 | 0.141 | 0.157 | 0.176 | 0.198 | 0.226 | 0.259 | 0.294 | 0.337 | 0.385 | 0.438
x2 = 0.5057 | 0.179 | 0.201 | 0.223 | 0.247 | 0.274 | 0.301 | 0.334 | 0.37 | 0.41 | 0.454
x2 = 0.7318 | 0.135 | 0.154 | 0.176 | 0.198 | 0.222 | 0.248 | 0.278 | 0.31 | 0.343 | 0.382

CC(C)C(=O)Nc1ccc([N+](=O)[O-])c(C(F)(F)F)c1 + CC(C)O + O
solubility (g/100 g solution)
Details | 278.15 K | 283.15 K | 288.15 K | 293.15 K | 298.15 K | 303.15 K | 308.15 K | 313.15 K | 318.15 K | 323.15 K
x2 = 0.03225 | 0.00411 | 0.00535 | 0.00694 | 0.00908 | 0.0116 | 0.0149 | 0.0187 | 0.0236 | 0.0297 | 0.0366
x2 = 0.06974 | 0.0295 | 0.0376 | 0.0488 | 0.0614 | 0.0768 | 0.0971 | 0.121 | 0.15 | 0.185 | 0.226
x2 = 0.1139 | 0.145 | 0.182 | 0.228 | 0.279 | 0.342 | 0.415 | 0.505 | 0.598 | 0.707 | 0.853
x2 = 0.1666 | 0.533 | 0.638 | 0.775 | 0.929 | 1.12 | 1.32 | 1.54 | 1.82 | 2.11 | 2.46
x2 = 0.2307 | 1.53 | 1.83 | 2.16 | 2.51 | 2.97 | 3.45 | 3.99 | 4.54 | 5.22 | 5.9
x2 = 0.3103 | 3.62 | 4.25 | 5 | 5.84 | 6.78 | 7.81 | 9.03 | 10.4 | 11.7 | 13.3
x2 = 0.4117 | 6.94 | 8.23 | 9.52 | 11.1 | 12.8 | 14.6 | 16.6 | 18.9 | 21.3 | 23.8
x2 = 0.5454 | 11.6 | 13.6 | 15.6 | 17.6 | 20.1 | 22.3 | 25 | 28.1 | 30.8 | 33.6
x2 = 0.7297 | 16.9 | 19.1 | 21.6 | 24.2 | 27.3 | 30.4 | 33 | 36.1 | 39.4 | 42.8

Nc1ncn(C2OC(CO)C(O)C2O)c(=O)n1 (stereo not drawn) + O + CCCO
solubility (g/100 g solution)
Details | 278.15 K | 283.15 K | 288.15 K | 293.15 K | 298.15 K | 303.15 K | 308.15 K | 313.15 K | 318.15 K
x2 = 0.4546 | 0.0722 | 0.0869 | 0.104 | 0.124 | 0.149 | 0.177 | 0.208 | 0.241 | 0.279
x2 = 0.6897 | 0.165 | 0.201 | 0.249 | 0.302 | 0.359 | 0.424 | 0.49 | 0.562 | 0.635
x2 = 0.8334 | 0.298 | 0.368 | 0.448 | 0.54 | 0.637 | 0.744 | 0.852 | 0.965 | 1.07
x2 = 0.9303 | 0.488 | 0.59 | 0.72 | 0.861 | 1.01 | 1.17 | 1.33 | 1.49 | 1.66
